Assay: gradient 5% acetonitrile 3 min, to 50% in 2 min, to 85% in 15 min, held 3 min, 100 µL/min
Details: column: Zorbax Extend-C18 2.1 x 50 mm; eluents: water / acetonitrile, 0.1% formic acid
Summary of the method: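 Mixtures of ~100 pure standards were chromatographed on a Zorbax Extend-C18 column (2.1 × 50 mm, 1.8 μm) at 100 μL/min using water and acetonitrile, each with 0.1% formic acid. Detection used a quadrupole time-of-flight mass spectrometer in positive and negative ionization mode, and data collection spanned 3 months. Retention time was obtained from adduct peaks picked computationally and each checked manually.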

In the case of `O=C1C(c2ccncc2)N(Cc2ccccc2)C(=O)CN1c1ccccc1` (stereo not drawn), the RP-LC retention time is reported as 684 s.
Work on `O=C(Cn1nc2c3cc(-c4ccccc4)nn3ccn2c1=O)NC1CCCC1` yielded an RP-LC retention time of 796 s.
Compound `CCN(CC)c1ccc(CN(C(=O)Cc2coc3ccc(C)cc23)C2CCS(=O)(=O)C2)cc1` (stereo not drawn) has an RP-LC retention time of 706 s.
For `CCOC(=O)c1c(C)[nH]c(C(=O)N2CCCC(C(=O)NCc3cccc(C)c3)C2)c1C` (stereo not drawn), the RP-LC retention time was 863 s.
With `CN(C)C[C@@H]1CN(Cc2ccccc2)C[C@H]1NS(=O)(=O)c1cccc(F)c1` the RP-LC retention time was 586 s.
Compound `CCN1C(=O)CCc2cc(NC(=O)c3ccnn3C)ccc21` has an RP-LC retention time of 677 s.
For `O=C(Cn1cccc1-c1nc(-c2ccc3c(c2)OCO3)no1)NCc1ccco1`, the RP-LC retention time was 906 s.
With `COc1ccccc1N1CCN(c2cc(SCC(=O)Nc3cc(F)ccc3Cl)ncn2)CC1` the RP-LC retention time was 1190 s.
`O=C(c1ccc(S(=O)(=O)c2ccc(Br)cc2)nc1)N1CCN(c2ncccn2)CC1` showed an RP-LC retention time of 835 s.
Compound `CCN(CC)S(=O)(=O)N1CCC(C(=O)NCc2ccc(OC)cc2)CC1` has an RP-LC retention time of 795 s.
In the case of `CCCn1ccc2sc(C)c(C(=O)N(CC)Cc3ccccc3)c2c1=O`, the RP-LC retention time is reported as 884 s.
Compound `COC1CCN(C(=O)NC(C)C)CC1` has an RP-LC retention time of 599 s.
`COc1ccc(N2CC(c3nc(-c4ccc5c(c4)OCO5)no3)CC2=O)cc1` (stereo not drawn) gave an RP-LC retention time of 891 s.
Compound `O=C(c1ccc2nsnc2c1)N1CCN(S(=O)(=O)C2CC2)CC1` has an RP-LC retention time of 657 s.
With `CCCCCCCCc1ccc(CCC(N)(CO)CO)cc1` the RP-LC retention time was 966 s.
In the case of `CN1CCc2c(c(CNC(=O)c3cc(CN4CCOCC4)on3)nn2C)C1`, the RP-LC retention time is reported as 770 s.
For `CCOc1ccc(CNC(=O)c2cn3c(n2)CCCC3)cc1`, the RP-LC retention time was 606 s.
Compound `CC(=O)N1CCc2cc(N3CC(C(=O)N4CCN(c5ccccn5)CC4)CC3=O)ccc21` (stereo not drawn) has an RP-LC retention time of 566 s.
In the case of `Cc1cccc(C)c1NC(=O)C1CCCN(c2nnc(C)c3c(C)n(-c4ccccc4)nc23)C1` (stereo not drawn), the RP-LC retention time is reported as 776 s.
`Cc1cnc(C(=O)N2CC(n3cc(COc4ccc(F)cc4)nn3)C2)cn1` gave an RP-LC retention time of 731 s.
`CC(C)c1ccc(-c2nc(C3CC(=O)N(c4ccc(F)c(Cl)c4)C3)no2)cc1` (stereo not drawn) showed an RP-LC retention time of 1290 s.
With `Cc1ccc(CN2CC(=O)N3CCc4c([nH]c5ccccc45)C3(C)C2=O)cc1` (stereo not drawn) the RP-LC retention time was 1020 s.
With `O=C(NCc1ccco1)C1CCN(Cc2cc3ccccc3n2Cc2ccccc2Cl)CC1` the RP-LC retention time was 790 s.
With `CCC1(O)CCOC2(CCN(C(=O)C3CCCCCC3)CC2)C1` (stereo not drawn) the RP-LC retention time was 823 s.
With `Cc1cc(NC(=O)N2CCN(CCn3c(C)nc4cccnc43)CC2)ccc1Br` the RP-LC retention time was 641 s.
`COc1ccc(CCc2nc3nccc(-c4cccc(OC)c4)n3n2)cc1` gave an RP-LC retention time of 879 s.
For `Cc1cc(C)n(C(=O)COc2ccc(Cl)cc2C)n1`, the RP-LC retention time was 1160 s.
`CCCc1nnc(NC(=O)CSc2ccc(NC(=O)C3CC3)nn2)s1` showed an RP-LC retention time of 694 s.
In the case of `O=C(COc1ccc([N+](=O)[O-])cc1Cl)N1CCOCC1`, the RP-LC retention time is reported as 846 s.
In the case of `CCCn1c(C)c(C)c(S(=O)(=O)c2ccc(OC)cc2)c1NC(=O)C1CCCO1` (stereo not drawn), the RP-LC retention time is reported as 898 s.
`Cn1cc(-c2ccncc2)cc1C(=O)N1CCN(c2ccc(F)cc2)CC1` gave an RP-LC retention time of 632 s.
In the case of `COc1cccc(Cn2ccc3ccn(CCN(C)C)c3c2=O)c1`, the RP-LC retention time is reported as 639 s.
Compound `COc1ccccc1NS(=O)(=O)c1cn(C(C)C)c2ncccc12` has an RP-LC retention time of 886 s.
With `Cc1cc2ccccc2n2c(SCC(=O)NCC3CCCO3)nnc12` (stereo not drawn) the RP-LC retention time was 628 s.
In the case of `CN1C(=O)C(c2c(-c3ccc4ccccc4c3)[nH]c3[nH]c(=O)[nH]c(=O)c23)c2ccccc21` (stereo not drawn), the RP-LC retention time is reported as 721 s.
With `COC(=O)c1cccc(C(=O)Nc2ccc(F)cc2C)n1` the RP-LC retention time was 853 s.
Compound `CCc1ccc(S(=O)(=O)N2C[C@@H](F)C[C@H]2C(=O)N2CCCCC2)cc1` has an RP-LC retention time of 866 s.
Work on `COC(=O)c1ccc(NS(=O)(=O)c2cccc(S(C)(=O)=O)c2)cc1` yielded an RP-LC retention time of 706 s.
With `CCn1nnc(NCc2ccc(-c3cc(Cl)cc(Cl)c3)o2)n1` the RP-LC retention time was 1140 s.
`COc1ccc(NC(=O)C2CCCN(S(=O)(=O)c3c[nH]c(C(=O)N4CCCCCC4)c3)C2)cc1` (stereo not drawn) gave an RP-LC retention time of 842 s.
For `O=C(NCCCN1CCOCC1)c1c(O)c2cccc3c2n(c1=O)CC3`, the RP-LC retention time was 845 s.
Compound `COc1ccc(OC)c(Nc2c(-c3ccc(C)cc3)nc3cnccn23)c1` has an RP-LC retention time of 911 s.
Work on `COCCN1C(=O)CCc2cc(NS(=O)(=O)c3cc(C)ccc3C)ccc21` yielded an RP-LC retention time of 1060 s.
Compound `Cc1nn(-c2cc(N3CCOCC3)ncn2)c(C)c1CCC(=O)N1CCN(c2ccccn2)CC1` has an RP-LC retention time of 618 s.
With `Cc1ccc(-c2nc(CN3CCCC(C(=O)NC4CCCCNC4=O)C3)no2)cc1` (stereo not drawn) the RP-LC retention time was 638 s.
For `CCCN1C(=O)c2c(C(=O)NCc3cccc(F)c3)ncn2CC1(C)C(=O)NC1CCCC1` (stereo not drawn), the RP-LC retention time was 821 s.
Compound `COc1ccc(NC(=O)CN2C(=O)C(C)(C)c3ccccc32)cc1OC` has an RP-LC retention time of 778 s.
`O=C(c1ccno1)N1CCC(c2nnc(-c3ccco3)s2)CC1` showed an RP-LC retention time of 644 s.
`CCOc1cc(=O)n2c(c1C(=O)Nc1cccc3c1CCCC3)CCCC2` showed an RP-LC retention time of 804 s.
In the case of `CC1CCc2nn(CC(=O)Nc3c(F)c(F)c(F)c(F)c3F)cc2C1` (stereo not drawn), the RP-LC retention time is reported as 934 s.
Work on `CCOc1ccc(CNC(=O)C2CCN(Cc3cn(C)c4ccccc34)CC2)cc1OCC` yielded an RP-LC retention time of 708 s.
With `COc1ccc(Cc2nnc(NC(=O)c3cnc4ccccc4n3)o2)cc1` the RP-LC retention time was 722 s.
Compound `Cc1cnn(Cc2c(C(=O)N3CCc4nn(C)c(=O)n4CC3)noc2C)c1` has an RP-LC retention time of 602 s.
In the case of `CCCn1nc(-n2cnnc2)c(NC(=O)c2cc(OC)cc(OC)c2)c1C`, the RP-LC retention time is reported as 682 s.
In the case of `CCN1C(=O)c2cc(S(=O)(=O)Nc3ccccc3C)ccc2Oc2cccnc21`, the RP-LC retention time is reported as 1000 s.
In the case of `Cc1noc(-c2cccc(OC3CN(C(=O)NCCc4ccccc4)C3)c2)n1`, the RP-LC retention time is reported as 879 s.
For `O=C(NC1CCCCC1)c1csc(N2CCN(c3ccccc3)CC2)n1`, the RP-LC retention time was 1160 s.
Work on `COc1ccc(-c2nc3ncccn3c2Nc2c(C)cccc2C)cc1` yielded an RP-LC retention time of 765 s.
Work on `COc1ccc(NC(=O)N2CCN(c3nc4ccncc4n(CC(C)C)c3=O)CC2)cc1` yielded an RP-LC retention time of 587 s.
`CC1CCN(C(=O)c2cc3c(s2)CCC(C(=O)O)C3)CC1` (stereo not drawn) showed an RP-LC retention time of 580 s.
Work on `COc1ncc(C(=O)Nc2cc(C)cc(C)c2)c(C)n1` yielded an RP-LC retention time of 817 s.
`O=C(NC1CCCCCC1)c1nc(Nc2ccccc2)c2ccccc2n1` gave an RP-LC retention time of 917 s.
`COc1ccc(-c2nc3cc(C)ccn3c2NC(=O)c2ccc([N+](=O)[O-])cc2)cc1` showed an RP-LC retention time of 691 s.
Work on `COc1ccc2c(C)c(CCC(=O)N[C@H](C(=O)O)c3ccccc3)c(=O)oc2c1` yielded an RP-LC retention time of 744 s.
For `O=C(NCCn1c(-c2ccncc2)nc2cccnc21)Nc1cccc(Cl)c1`, the RP-LC retention time was 645 s.
For `O=C(c1ccc(F)c(Cl)c1)N1CCc2nc[nH]c2C1`, the RP-LC retention time was 592 s.
`Cn1c(N2CCN(C(=O)Cc3ccccc3Cl)CC2)cc(=O)n(C)c1=O` gave an RP-LC retention time of 732 s.
In the case of `O=C(Nc1ccc(OCC(=O)N2CCN(c3ccccc3F)CC2)nc1)C1CC1`, the RP-LC retention time is reported as 648 s.
